Measured values as given in patent US20240138417A1, “TRICHODERMA-BASED BIOENHANCER FOR FOLIAR APPLICATION IN PLANTS” (YPF TECNOLOGÍA S.A., priority 2022, published 2024).

Experiments:
[1] = tested on: Arabidopsis thaliana seedlings; assay: Auxin activity, root growth bioassay in A. thaliana seedlings; assay type: in vivo; details: 4-days old seedlings, MS-Agar; formulation 0.1, 1, 10, 25% v/v; IAA 1, 10 and 100 nM
Procedure: Auxin Activity • Auxin activity was determined by measuring the growth of the main root in seedlings of Arabidopsis thaliana, and the amount of side roots to estimate the root density according to Iglesias et al. (2014). Briefly, 4-days old A. thaliana seedlings were grown in a MS-Agar medium supplemented with different concentrations of the formulation of Example 5 (0.1, 1, 10, 25% v/v). As reference, different concentrations of indole-acetic acid (IAA) were used (1, 10 and 100 nM). Three independent assays were carried out, with 8 seedlings per treatment (N=24).

[2] = tested on: cucumber cotyledons (Cucumis sativus var. Runner); assay: Cytokinin activity, cucumber cotyledons greening bioassay (chlorophyll content); details: incubated 20 h, then light 16 hs; SPAD detector and acetone extraction
Procedure: Cytokinin Activity • Cytokinin activity was determined by quantifying the chlorophyll content in cucumber cotyledons (Fletcher et al., 1982). Briefly, cucumber (Cucumis sativus var. Runner) seeds were germinated and grown in darkness for 7 days. Then, the cotyledons were cut and incubated for 20 h under different concentrations of the formulation of Example 5 (0.1, 1, 10 and 100% v/v). As a positive control, different concentrations of a cytokinin analog, kinetin, were used (0.01, 0.1, 1 and 10 μg/ml). Then the cotyledons were exposed to light for 16 hs, and the chlorophyll content was determined by two methods: by means of a manual SPAD detector (Chlorophyll meter SPAD-502, Konica Minolta), and by extracting the chlorophyll with acetone (Arnon 1949). Three independent assays were carried out, with 8 cotyledons per treatment (N=24).

SMILES: O=C(O)Cc1c[nH]c2ccccc12 [IAA, indole-acetic acid]
- growth of the main root [1]: dose-dependent shortening of the main root
- number of side roots [1]: increase in the number of side roots

SMILES: c1coc(CNc2ncnc3[nH]cnc23)c1 [kinetin]
- greening of cotyledons (chlorophyll content) [2]: stimulated the greening of the etiolated cotyledons depending on the dose
